Patent publication US8007779B2, “Nucleic acid constructs and cells, and methods utilizing same for modifying the electrophysiological function of excitable tissues” (GeneGrafts Ltd., priority 2000, dated 2011)
Several values for one entry are separate records, joined by “and”; a condition that tells them apart may be missing. Equal values may be shown once. Entries after “also recorded” stand apart in the source; their conditions may differ.

Key:
[1] = system: cultured neuronal network; test: Spiking activity of cultured cortical neuronal network on multi-electrode array (MEA); format: cell-based, rat; conditions: 5 μM bicuculin, 10 μM DNQX or 20 μM APV added to the culture
Procedure: Cortical neurons were obtained from newborn rats within 24 hours from birth, following standard harvesting procedures (Culturing nerve cells, 2nd edition, Gary Ranker and Kimberly Goslin, 1998). The cortex tissue was digested enzymatically and mechanically dissociated and the neurons were plated directly onto substrate-integrated multi-electrode array (MEA) dishes prepared as described below. The cultures were bathed in MEM which was supplemented with heat-inactivated horse serum (5%), Glutamine (0.5 mM), Glucose (20 mM), and Gentamycin (10 μg/ml), and maintained in a tissue culture incubator at 37° C., 5% CO2 and 95% during the recording phases. Half of the medium was exchanged twice a week and the experiments were performed during the third week following plating, thus allowing complete maturation of the neurons (FIGS. 1a-b).
Arrays of 60 Ti/Au/TiN electrodes, 30 μm in diameter, spaced 200 μm from each other (MultiChannelSystems (MCS), Reutlingen, Germany) were utilized in the present study. The insulation layer (silicon nitride), was pretreated with poly-L-lysine forming a good surface for network development. A commercial 60-channel amplifier (B-MEA-1060, MCS, Reutlingen, Germany) with frequency limit range of 10-3000 Hz and a gain of ×1024 was utilized for signal amplification. The amplifier was connected to MCPPlus filter amplifiers (Alpha Omega, Nazareth, Israel) for further amplification (×10 to ×20). Stimulation through the MEA was performed using a dedicated 8-channel stimulus generator (MCS, Reutlingen, Germany).
In addition, the micro-incubation environment was arranged to support long-term recordings from MEA dishes. This was achieved by streaming a filtered, heated and humidified air/CO2 (95/5%) gas mixture, and by electrically heating the MEA platform to 37° C. Data is digitized using two 5200a/526 A/D boards (Microstar Laboratories, WA, USA).
Following electrical functionality determination, the neuronal network cultures were incubated with various electrical conduction blockers.

[2] = system: neonatal rat (Sprague Dawley) ventricular myocytes; test: Spontaneous beating rate of neonatal rat ventricular myocyte/fibroblast co-cultures (MEA), with CTx; format: cell-based
Description: Cell co-culturing—Primary monolayer cultures of neonatal rat (Sprague Dawley) ventricular myocytes were generated as previously described [Nuss H B, Marban E, Johns D C. Overexpression of a human potassium channel suppresses cardiac hyperexcitability in rabbit ventricular myocytes. J Clin Invest. 1999; 103:889-96]. Briefly, following excision, the ventricles were minced and treated with RDB (IIBR, Ness-Ziona, Israel). Following centrifugation, dispersed cells were suspended in culture medium (Ham's F10), 5% fetal calf serum, 5% horse serum, 100 U/ml penicillin, […] streptomycin (all from Biological industries, Beit Haemek, Israel), 1 mM CaCl2 and 50 mg/100 ml bromodeoxyuridine (BrdU, Sigma). The cells were then cultured on gelatin coated (0.1%) microelectrode culture plates at a density of 1.5×10^6 cells/ml.
Once a well synchronous spontaneous activity was established in the cardiomyocyte cultures, fibroblasts (naïve, or Kv1.3 expressing fibroblasts) were seeded in a diffuse manner into the cardiomyocytic cultures. Two groups were studied: The cultures were studied daily, and the electrophysiological properties, essentially the spontaneous beating rate of the culture, was assessed at baseline and following application of the specific Kv1.3 blocker, Charybdotoxin (CTx), at increasing dosages (1, 10, 100 nM). […]

[3] = system: cardiomyocytes co-cultured with fibroblasts (NIH 3T3) transfected with voltage gated potassium channel Kv1.3; test: Spontaneous activity rate of cardiomyocyte cultures and fibroblast co-cultures on MEA under CTX; format: cell-based, rat
Procedure: (§1) Monolayer cultures of neonatal rat ventricular cardiomyocytes (NRVM) were prepared as previously described (Rubin et al, 1995), with some modifications. The cultures were maintained in a humidified incubator under a controlled environment of 5% CO2+95% air at 37° C.; fresh medium was replaced on alternating days.
(§2) Fibroblasts from the NIH 3T3 cell line were transfected with an expression cassette which included a mutant voltage gated potassium channel (Kv1.3) coding sequence (GeneBank Accession number H18261) placed under the transcription control of a constitutive promoter using standard procedures. Fibroblast cultures not transfected with the channel coding sequence were produced from the NIH 3T3 cell-line.
(§3) Once well synchronous spontaneous activity was established in the cardiomyocyte cultures, fibroblasts transfected with the Kv1.3 channel coding sequence or non-transfected fibroblasts were added to the cultures. Two different methods where used to seed the fibroblasts. In the first method, the fibroblast were suspended in trypsin for 5 minutes following which they were seeded in a diffuse pattern in the cardiomyocytic cultures (FIG. 4a). In the second method, the fibroblasts where pipetted up and down through a 5 ml pipette for 2 minutes and seeded in the cardiomyocytic cultures thus were forming clusters of fibroblasts (FIG. 4b).
(§4) Extracellular recordings from cultured cardiomyocytes were performed on a PC-based Microelectrode Data Acquisition System (Multi Channel Systems, Reutlingen, Germany), consisting of Multi-Electrode Array (MEA), pre- and filter-amplifiers, data acquisition board, and software. The MEA consists of a 50×50 mm glass substrate, in the center of which is an embedded 0.7×0.7 or 1.4×1.4 mm matrix of 60 Titanium-nitride, gold contacts 10 or 30 μm diameter electrodes insulated with silicone nitride, with inter-electrode distance of 100 or 200 μm (there are no electrodes in the corners of the matrix). Data were recorded at 10-25 KHz with 12-bit precision. During the recording sessions, the MEA (removed from the regular incubator) was constantly perfused with a gas mixture consisting of 5% CO2+95% air. Temperature was kept at 37±0.10° C.
Electrical activity of the cultures was recorded on day one immediately prior to seeding of the fibroblasts and then daily until the cultures died or no spontaneous activity was detected. During the daily measurements the cultures where subjected to increasing concentrations (0.1, 1, 10, 100 nM) of CTX.
Measurement were performed during spontaneous activity from three groups of cardiomyocyte cultures: cultures without fibroblasts, cultures with NIH 3T3 fibroblasts (seeded diffusely) and cultures with transfected NIH 3T3 fibroblasts (expressing the mutant voltage gated potassium channel coding sequence).

[4] = system: neonatal rat ventricular cardiomyocytes (NRVM); test: Synchronous activity, conduction block, conduction velocity and signal amplitude of cardiomyocyte/fibroblast co-cultures on MEA; format: cell-based
Procedure: as §1, §2, §3, §4
Recorded data was filtered using cutoff frequency of 2 KHz (Fast et al, 1993). The filtered signal was then differentiated digitally to determine the Local Activation Time (LAT) at each electrode, corresponding to dF/dtmin (where F is the filtered signal) (Dolber and Spach, 1986). Color-coded activation maps were constructed by interpolating the LAT values for the sites between the electrodes, and by extrapolating the LAT values for the 4 corners of the MEA matrix. Activation maps were plotted by means of Matlab standard 2-d plotting function (pcolor) (Matlab 5.3 Mathworks Incorporated©). Conduction velocity was calculated by standard methods (Bayly et al, 1988).
Conduction block quantification is central to evaluating conduction block development in the cell cultures, and to evaluating reversibility of the conduction block following CTX application. A conduction block was determined using the following algorithm: […]
Electrical activity of the cultures was recorded on day one immediately prior to seeding of the fibroblasts and then daily until the cultures died or no spontaneous activity was detected. […]

[5] = system: right ventricular free wall; test: In vivo local ventricular effective refractory period (ERP) after cell grafting, swine model; parameters: species or system pig; conditions: for ventricular ERP following local application of MTx: swine, sites grafted with transfected fibroblasts, all CLs (FIG. 20b)
Procedure: Swine model—Three domestic pigs (20-30) kg were studied. Anesthesia was induced with 5-10 ml of intravenous sodium pentothal 2.5% solution and maintained with inhaled isoflurane (2%) in oxygen. Following a right thoracotomy, each heart was exposed and a total of 6×10^6 cells were transplanted at a total of 7 different locations in the anterior free wall of the right ventricle. Cells were delivered using a 25 g needle using an injection volume of 250 μl. The sites of cell transplantation were marked with a suture. To prevent graft rejection, the animals were treated with an immunosuppressive regimen (cyclosporine, 10 mg/kg/d and methylprednisolone, 3 mg/kg/d). 7 days following cell transplantation, a second thoracotomy and a detailed epicardial electrophysiological study were performed.
The ERP in the pigs was measured in a similar manner to that in the rats but using slower basic stimulation intervals (CLs of 350, 400 and 500 ms). The ERP was measured at the site of cell transplantation as well as in remote sites and also following local intramyocardial injection of Margatoxin at the examined sites.

[6] = system: left ventricular myocardium; test: In vivo local ventricular effective refractory period (ERP) after cell grafting, rat model; conditions: for local ventricular ERP at the site of cell transplantation after MTx: study group (Kv1.3 fibroblasts, n=10), mean±SEM (FIG. 19b)
Procedure: Rat model—Male Sprague-Dawley rats weighing 200-250 gr were anesthetized using A Xylasine (0.5 mg/kg) and Ketamine (0.5 mg/kg) preparation [see Example 7]. The animals were then intubated and ventilated using a Harvard small-animal mechanical respirator. The chest wall was opened using a left thoracotomy and the heart was exposed. After removal of the pericardium, a total of 6×10^6 cells (either fibroblasts without transfections in the control group or fibroblast overexpressing the KV1.3 channel in the study group) were transplanted into the anterior aspect of the left ventricular wall using a 28 g needle. In order to prevent graft rejection, all animals were treated with a daily dose of cyclosporin (10 mg/kg) and methyprednisolone (2 mg/kg). The animals underwent a detailed electrophysiological study (see below) immediately before cell grafting and 7 days post-transplantation.
In vivo electrophysiological studies—The electrophysiological study in rats included a standard ventricular pacing protocol to determine the local myocardial effective refractory period (ERP). The ERP was evaluated by applying a train of 20 stimuli at a fixed cycle-length of 200 ms (S1), followed by a single premature stimulus (S2). The S1-S2 coupling interval was gradually shortened. The ERP was determined as the shortest S1-S2 coupling interval still capable of eliciting a ventricular response. Stimuli were generated using a computer controlled STG 1004 stimulus generator with the matching MC-Stim software (both from Multi Channel Systems, Reutlingen, Germany).
The ERP was measured at the site of cell transplantation and at remote sites, both prior to cell transplantation and seven days following cell grafting. In order to dissect the role of the overexpressed channel in altering the local myocardial electrophysiological properties, the ERP was measured also at each site following application of 9 μg/kg of Margatoxin (Alomone Labs, Jerusalem, Israel), a specific Kv 1.3 channel blocker as an intraperitoneal bolus.

Molecule: N[C@H](CCCP(=O)(O)O)C(=O)O [APV, D-2-amino-5-phosphonovalerate]
- spiking activity in cultured neuronal network [1]: completely abolished

Molecule: Charybdotoxin (QFTNVSCTTSKECWSVCQRLHNTSRGKCMNKKCRCYS) [CTX]
- beating frequency after CTx application ([2]; control group (naive fibroblasts)): did not significantly alter
- reversibility of the negative chronotropic effect by CTx ([2]; study group (Kv1.3 transfected fibroblasts), CTx 100 nM (FIG. 18b)): full reversibility
- increase in spontaneous activity rate ([3]; CTX 10 nM, cardiomyocyte cultures or cardiomyocytes co-cultured with untransfected fibroblasts): did not increase
- increase in spontaneous activity rate ([3]; CTX 10 nM, co-cultures which included the Kv1.3 transfected fibroblasts): 20%
- increase in spontaneous activity rate ([3]; CTX 100 nM, cardiomyocyte cultures or cardiomyocytes co-cultured with untransfected fibroblasts): up to 15%
- increase in spontaneous activity rate ([3]; CTX 100 nM, co-cultures which included the Kv1.3 transfected fibroblasts): 55%
- activation map after CTX ([4]; co-culture with non-transfected fibroblasts, five days after seeding, CTX 10 nM (FIG. 12d)): no appreciable change
- conduction block factor after Charybdotoxin ([4]; co-cultures including fibroblasts transfected with Kv1.3, n=10 (FIG. 11)): substantially decreased
- conduction block factor after Charybdotoxin ([4]; co-cultures including non-transfected fibroblasts, n=9 (FIG. 11)): minimal response
- conduction block after CTX treatment ([4]; co-cultures with Kv1.3 transfected fibroblasts, CTX 10 nM (FIG. 7d)): reversal; also recorded: reversed
- uncoupling effect after CTX treatment ([4]; co-cultures with Kv1.3 transfected fibroblasts, CTX 100 nM (FIGS. 6f-g)): reversed

Molecule: O=[N+]([O-])c1cc2nc(O)c(O)nc2cc1[N+](=O)[O-] [DNQX]
- spiking activity in cultured neuronal network [1]: completely abolished

Molecule: Margatoxin (TIINVKCTSPKQCLPPCKAQFGQSAGAKCMNGKCKCYPH)
- local ERP after local application of MTx ([5]; pig grafted with transfected cells, basic CL drive 400 ms (FIG. 20a)): 220 ms
- ventricular ERP following local application of MTx [5]: near baseline values
- ventricular ERP following local application of MTx ([5]; listed as MTx): not different from the control sites
- local ERP after administration of Mtx ([6]; control group grafted with naive fibroblasts (n=8)): did not change significantly
- ventricular ERP at the site of cell grafting after Margatoxin ([6]; one animal grafted with Kv1.3 fibroblasts, basic CL 200 ms (FIG. 19a)): reversed and 100 ms
- local ventricular ERP at the site of cell transplantation after MTx [6]: 117 ± 7.70 ms
- local ventricular ERP at the site of cell transplantation after MTx ([6]; listed as MTx): 117 ± 8 ms

Molecule: CN1CCc2cc3c(cc2[C@H]1[C@@H]1OC(=O)c2c1ccc1c2OCO1)OCO3 [bicuculin]
- spiking activity in cultured neuronal network [1]: completely abolished
